PubChem BioAssay (NCI)
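Results reflect a 48-hour exposure of cells in 96-well plates to compound at five concentrations. Here, GI50 denotes the concentration required for 50% inhibition of growth. At the TGI there is no net growth.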

What was measured:
Assay in all cases: growth of human tumour cells (NCI), 48 h
[1] = system: K-562 leukemia
[2] = system: KM12 colon
[3] = system: SF-295 CNS
[4] = system: IGROV1 ovarian
[5] = system: COLO 205 colon
[6] = system: HCT-15 colon
[7] = system: MOLT-4 leukemia
[8] = system: OVCAR-4 ovarian
[9] = system: MALME-3M melanoma
[10] = system: UO-31 renal

SMILES | TGI [1] | TGI [2] | TGI [3] | TGI [4] | TGI [5] | TGI [6] | TGI [7] | TGI [8] | TGI [9] | TGI [10] | GI50 [1] | GI50 [2] | GI50 [3] | GI50 [4] | GI50 [5] | GI50 [6] | GI50 [7] | GI50 [8] | GI50 [9] | GI50 [10]
COc1cc2c(cc1OC)-c1cc3cc(OC)c(OC)cc3c(=O)n1CC2 | > 100 µM | > 100 µM | > 100 µM | > 62.3 µM | > 100 µM | > 100 µM | > 100 µM | > 100 µM | > 79.5 µM | 13.2 µM |  |  |  |  |  |  |  |  |  | 
C#CCn1c(=O)c(Cl)cn(/C(=C/C(=O)OCC)C(=O)OCC)c1=O | 7 µM | > 70.5 µM | > 66.7 µM | 35.1 µM | 2.5 µM | 25.2 µM | > 23.9 µM | 38.8 µM | 8.5 µM | 10.6 µM |  |  |  |  |  |  |  |  |  | 
NC(=O)CC(N=C1C(=O)OC(C(O)CO)C1=NC(CC(N)=O)C(=O)O)C(=O)O (stereo not given) | > 100 µM | > 100 µM | > 100 µM | > 100 µM | > 100 µM | > 100 µM | > 100 µM | > 100 µM | > 100 µM | > 100 µM |  |  |  |  |  |  |  |  |  | 
O=[N+]([O-])c1c2nc3n(c2cc2c1nc1n2CCC1)CCC3 | > 100 µM | > 100 µM | > 100 µM | > 100 µM | > 100 µM | > 100 µM | > 100 µM | > 100 µM | > 100 µM | > 100 µM |  |  |  |  |  |  |  |  |  | 
CCN(CC)CCCC(C)NC(=O)c1ccc2c(c1)C(=O)c1ccccc1C2=O (stereo not given) | 48.4 µM | 35.7 µM | 45.8 µM | 55.3 µM | 23.3 µM | 40 µM | 52.8 µM | 30.4 µM | 27.6 µM | 69 µM |  |  |  |  |  |  |  |  |  | 
CC12CCC(C(Nc3ccccn3)C1=O)C2(C)C (stereo not given) | > 100 µM | > 100 µM | > 100 µM | > 100 µM | > 100 µM | > 100 µM | > 100 µM | > 100 µM | > 100 µM | > 100 µM |  |  |  |  |  |  |  |  |  | 
C=C1C(=O)O[C@@H]2[C@H](O)[C@@H](C)[C@@H]3C=CC(=O)[C@@]3(C)[C@H](OC(=O)C=C(C)C)[C@H]12 | 0.518 µM | 3.78 µM | 7.27 µM | 4.48 µM | 1.67 µM | 0.667 µM | 0.725 µM | 4.92 µM | 1.25 µM | 7.23 µM |  |  |  |  |  |  |  |  |  | 
C=C(C)[C@@H]1CCC2=C[C@H](CC(C)=CC3=CC(C)=C(O3)[C@@H]1OC)OC2=O | > 100 µM | > 100 µM | 70.5 µM | > 100 µM | > 100 µM | > 100 µM | > 100 µM | > 100 µM | > 100 µM | > 100 µM |  |  |  |  |  |  |  |  |  | 
C=C(C(=O)OC)c1cc2ccccc2n1S(=O)(=O)c1ccccc1 | > 100 µM | 5.99 µM | 20.8 µM | 4.21 µM | 3.82 µM | 5.37 µM | > 24 µM | 11.3 µM | 5.72 µM | 9.41 µM |  |  |  |  |  |  |  |  |  | 
COc1ccc(-c2cc(-c3cc(F)c(Cl)cc3Cl)on2)cc1OC | > 100 µM | > 100 µM | > 100 µM | > 100 µM | 92.3 µM | > 100 µM | 49.5 µM | > 100 µM | > 100 µM | > 100 µM |  |  |  |  |  |  |  |  |  | 
Oc1ccc(C#CCOc2ccccc2)cc1CNCCN(Cc1ccccn1)Cc1ccccn1 | 13.8 µM | 2.91 µM | 1.89 µM | 1.66 µM | 9.74 µM | 3.55 µM | 5.56 µM | 3.71 µM | 3.31 µM | 2.5 µM | 2.49 µM | 1.28 µM | 0.552 µM | 0.45 µM | 2.8 µM | 1.13 µM | 2 µM | 1.29 µM | 1.63 µM | 1.02 µM
CCCCCCCCCCCCCCCCCCOCC(COP(=O)([O-])OCC[N+](C)(C)C)OC (stereo not given) | 75.2 µM | 10.4 µM | 29.7 µM | 18.7 µM | 21.2 µM | 11.3 µM | 29.3 µM | > 52.6 µM | 46.8 µM | 52.7 µM |  |  |  |  |  |  |  |  |  | 
Clc1nc(Cl)c(CBr)c(Cl)n1 | > 23.5 µM | 7.87 µM | 16.1 µM | 14.1 µM | 20.9 µM | 7.91 µM | > 23 µM | 19.7 µM | 28.7 µM | 9.01 µM |  |  |  |  |  |  |  |  |  | 
N#Cc1nc(CCC(c2nc(C#N)c(N)o2)N2C(=O)c3ccccc3C2=O)oc1N (stereo not given) | > 100 µM | > 100 µM | > 100 µM | > 100 µM | > 100 µM | > 100 µM | > 100 µM | > 100 µM | > 100 µM | > 100 µM |  |  |  |  |  |  |  |  |  | 
CCOC(=O)Cn1c(=O)c2cc(-c3ccccc3)cc3c(Cl)nc4c(OC)c(OC)cc1c4c32 | > 55 µM | > 92.8 µM | > 100 µM | 27.5 µM | > 100 µM | 32.2 µM | 14.2 µM | > 77.1 µM | 22 µM | 43.8 µM |  |  |  |  |  |  |  |  |  | 
CCOC(=O)C(C(=O)OCC)=C1NC2(c3ccccc3Nc3ccc(C)cc32)C(C(=O)OC)S1 (stereo not given) | > 100 µM | > 100 µM | > 100 µM | > 100 µM | 57.9 µM | > 100 µM | > 100 µM | > 100 µM | 63.5 µM | > 100 µM |  |  |  |  |  |  |  |  |  | 
Oc1cccc(-c2cn3cc(C(F)(F)F)ccc3n2)c1 | > 100 µM | > 100 µM | 94 µM | > 100 µM | > 100 µM | > 100 µM | 40.1 µM | > 100 µM | > 100 µM | > 100 µM |  |  |  |  |  |  |  |  |  | 
COC(=O)[C@H](Cc1ccccc1)NP(=O)(O)OCC1C=CC(n2cc(C)c(=O)[nH]c2=O)O1 (stereo not given in full) | > 100 µM | > 100 µM | > 100 µM | > 100 µM | > 100 µM | > 100 µM | > 100 µM | > 100 µM | > 100 µM | > 100 µM |  |  |  |  |  |  |  |  |  | 
CC(C)C1CC[C@H](C)C[C@@H]1OC(=O)C(C(=O)O[C@H]1C[C@@H](C)CCC1C(C)C)C(O)[C@@H]1OC(C)(C)O[C@H]1C1COC(C)(C)O1 (stereo not given in full) | 32.2 µM | 31.6 µM | 32.6 µM | 30.4 µM | 28.2 µM | 44.3 µM | 42.8 µM | 50.9 µM | 36 µM | 31.3 µM |  |  |  |  |  |  |  |  |  | 
CC(=O)OCC1OC(O/C=C(\CN=[N+]=[N-])C(C)=O)C(OC(C)=O)C(OC(C)=O)C1OC(C)=O (stereo not given) | 23.6 µM | 40.3 µM | > 100 µM | 39.2 µM | 3.9 µM | 18.9 µM | 10.5 µM | 43.1 µM | 10.3 µM | 21.4 µM |  |  |  |  |  |  |  |  |  | 
Nc1ccc(Oc2ccc(C34CC5CC6C3CC3CC4C(C5)C6(c4ccc(Oc5ccc(N)c(O)c5)cc4)C3)cc2)cc1O | > 54.8 µM | 47.8 µM | 15.3 µM | 22.6 µM | 2.85 µM | 25 µM | 12.9 µM | 22.2 µM | 30.4 µM | 11.2 µM |  |  |  |  |  |  |  |  |  | 
COc1cc(C2c3cc4c(cc3[C@@H](Nc3cccc([N+](=O)[O-])c3)C3COC(=O)[C@H]23)OCO4)cc(OC)c1O (stereo not given in full) | > 40.5 µM | 16.9 µM | 4.94 µM | > 84.4 µM | 18.1 µM | 4.12 µM | 3.37 µM | > 100 µM | 20.1 µM | > 29 µM |  |  |  |  |  |  |  |  |  | 
c1ccc(C(CCN2CC3CCC(CC3)C2)c2ccccc2)cc1 | 47.7 µM | 87.4 µM | 55 µM | > 100 µM | 25.1 µM | 45.4 µM | 42.6 µM | > 100 µM | 29.9 µM | 45.7 µM |  |  |  |  |  |  |  |  |  | 
CC(NC(=O)C(N)CC(=O)O)NC(=O)N(C)C(C)(C)C (stereo not given) | > 100 µM | > 100 µM | > 100 µM | > 100 µM | > 100 µM | > 100 µM | > 100 µM | > 100 µM | > 100 µM | > 100 µM |  |  |  |  |  |  |  |  |  | 
C#CC(O)/C=C/C(O)CCCC(O)CC#CC(O)C#CC(O)CCCC(O)/C=C/CCCC(=O)CCCCCCCCCCCCCCCC(O)C(O)C#CC(=O)O (stereo not given) | > 50 µM | > 50 µM | > 50 µM | 21.1 µM | > 50 µM | > 50 µM | > 50 µM | 28.2 µM | > 50 µM | 22.1 µM |  |  |  |  |  |  |  |  |  | 
N#Cc1ccc(Oc2nc3ccc(C(F)(F)F)cc3nc2-c2ccccc2)cc1 | 55.9 µM | 48.6 µM | 58.2 µM | 41.3 µM | 50.9 µM | 28.1 µM | 43.6 µM | 32.4 µM | 45.3 µM | 46.1 µM |  |  |  |  |  |  |  |  |  | 
CC(C)(C)c1ccc(C(C)(C)C)c(N2C(=O)C3ON=C(c4ccc([N+](=O)[O-])cc4)C3C2=O)c1 (stereo not given) | > 25 µM | > 25 µM | > 25 µM | 19.4 µM | > 25 µM | > 25 µM | > 25 µM | > 25 µM | > 25 µM | > 25 µM |  |  |  |  |  |  |  |  |  | 
O=C1c2ccccc2C(=O)c2c(O)ccc(O)c21 | > 100 µM | > 100 µM | > 100 µM | > 100 µM | > 100 µM | > 100 µM | > 100 µM | > 100 µM | > 100 µM | > 100 µM |  |  |  |  |  |  |  |  |  | 
O=C(OCCC12CC3CC(CC(C3)C1)C2)c1ccc(NCc2cc(O)ccc2O)cc1 | 10.6 µM | 3.43 µM | 5.25 µM | 0.277 µM | 1.2 µM | 3.53 µM | 10.3 µM | 3.17 µM | 3.81 µM | 1.58 µM |  |  |  |  |  |  |  |  |  | 
